Measurements published in PubChem BioAssay AID1259407 (Chemical Carcinogenesis Research Information System (CCRIS), 2018).
Activity calls are given as the source filed them. How the calls were made is not given here.

Tested on: CCRIS mutagenicity, Ames/micronucleus/aberration tests
Test: CCRIS mutagenicity studies
[1] = Test System: AMES SALMONELLA TYPHIMURIUM, Strain/Indicator: TA97, Metabolic Activation: NONE, Method: PREINCUBATION
[2] = Test System: AMES SALMONELLA TYPHIMURIUM, Strain/Indicator: TA98, Metabolic Activation: NONE, Method: PREINCUBATION
[3] = Test System: AMES SALMONELLA TYPHIMURIUM, Strain/Indicator: TA98, Metabolic Activation: NONE, Method: STANDARD PLATE
[4] = Test System: AMES SALMONELLA TYPHIMURIUM, Strain/Indicator: TA100, Metabolic Activation: NONE, Method: PREINCUBATION
[5] = Test System: AMES SALMONELLA TYPHIMURIUM, Strain/Indicator: TA100, Metabolic Activation: NONE, Method: STANDARD PLATE
[6] = Test System: AMES SALMONELLA TYPHIMURIUM, Strain/Indicator: TA1535, Metabolic Activation: NONE, Method: PREINCUBATION
[7] = Test System: AMES SALMONELLA TYPHIMURIUM, Strain/Indicator: TA1535, Metabolic Activation: NONE, Method: STANDARD PLATE
[8] = Test System: AMES SALMONELLA TYPHIMURIUM, Strain/Indicator: TA1537, Metabolic Activation: NONE, Method: STANDARD PLATE

Measured: mutagenic call

CC(=O)O[C@]1(C(C)=O)CC[C@H]2[C@@H]3C[C@H](C)C4=CC(=O)CC[C@]4(C)[C@H]3CC[C@@]21C
inactive: Test System: AMES SALMONELLA TYPHIMURIUM, Strain/Indicator: TA97, Metabolic Activation: HAMSTER, LIVER, S-9, AROCLOR 1254 (10 OR 30%), Method: PREINCUBATION inactive; negative | [1] inactive; negative | Test System: AMES SALMONELLA TYPHIMURIUM, Strain/Indicator: TA97, Metabolic Activation: RAT, LIVER, S-9, AROCLOR 1254 (10 OR 30%), Method: PREINCUBATION inactive; negative | Test System: AMES SALMONELLA TYPHIMURIUM, Strain/Indicator: TA98, Metabolic Activation: HAMSTER, LIVER, S-9, AROCLOR 1254 (10 OR 30%), Method: PREINCUBATION inactive; negative | [2] inactive; negative | [3] inactive; negative | Test System: AMES SALMONELLA TYPHIMURIUM, Strain/Indicator: TA98, Metabolic Activation: RAT, LIVER, S-9, AROCLOR 1254 (10 OR 30%), Method: PREINCUBATION inactive; negative | Test System: AMES SALMONELLA TYPHIMURIUM, Strain/Indicator: TA98, Metabolic Activation: RAT, LIVER, S-9, AROCLOR 1254, Method: STANDARD PLATE inactive; negative | Test System: AMES SALMONELLA TYPHIMURIUM, Strain/Indicator: TA100, Metabolic Activation: HAMSTER, LIVER, S-9, AROCLOR 1254 (10 OR 30%), Method: PREINCUBATION inactive; negative | [4] inactive; negative | [5] inactive; negative | Test System: AMES SALMONELLA TYPHIMURIUM, Strain/Indicator: TA100, Metabolic Activation: RAT, LIVER, S-9, AROCLOR 1254 (10 OR 30%), Method: PREINCUBATION inactive; negative | Test System: AMES SALMONELLA TYPHIMURIUM, Strain/Indicator: TA100, Metabolic Activation: RAT, LIVER, S-9, AROCLOR 1254, Method: STANDARD PLATE inactive; negative | Test System: AMES SALMONELLA TYPHIMURIUM, Strain/Indicator: TA1535, Metabolic Activation: HAMSTER, LIVER, S-9, AROCLOR 1254 (10 OR 30%), Method: PREINCUBATION inactive; negative | [6] inactive; negative | [7] inactive; negative | Test System: AMES SALMONELLA TYPHIMURIUM, Strain/Indicator: TA1535, Metabolic Activation: RAT, LIVER, S-9, AROCLOR 1254 (10 OR 30%), Method: PREINCUBATION inactive; negative | Test System: AMES SALMONELLA TYPHIMURIUM, Strain/Indicator: TA1535, Metabolic Activation: RAT, LIVER, S-9, AROCLOR 1254, Method: STANDARD PLATE inactive; negative | [8] inactive; negative | Test System: AMES SALMONELLA TYPHIMURIUM, Strain/Indicator: TA1537, Metabolic Activation: RAT, LIVER, S-9, AROCLOR 1254, Method: STANDARD PLATE inactive; negative | Test System: AMES SALMONELLA TYPHIMURIUM, Strain/Indicator: TA1538, Metabolic Activation: NONE, Method: STANDARD PLATE inactive; negative | Test System: AMES SALMONELLA TYPHIMURIUM, Strain/Indicator: TA1538, Metabolic Activation: RAT, LIVER, S-9, AROCLOR 1254, Method: STANDARD PLATE inactive; negative | Test System: CHINESE HAMSTER V-79, Strain/Indicator: V-79 (HGPRT)/6-THIOGUANINE, Metabolic Activation: NONE inactive; negative | Test System: CHINESE HAMSTER V-79, Strain/Indicator: V-79 (HGPRT)/6-THIOGUANINE, Metabolic Activation: RAT, LIVER, S-9, AROCLOR 1254 inactive; negative

CCC(C)(C)c1ccc(O)cc1
inactive: Test System: AMES SALMONELLA TYPHIMURIUM, Strain/Indicator: TA97, Metabolic Activation: HAMSTER, LIVER, S-9, AROCLOR 1254 (10%), Method: PREINCUBATION inactive; negative | Test System: AMES SALMONELLA TYPHIMURIUM, Strain/Indicator: TA97, Metabolic Activation: HAMSTER, LIVER, S-9, AROCLOR 1254 (30%), Method: PREINCUBATION inactive; negative | [1] inactive; negative | Test System: AMES SALMONELLA TYPHIMURIUM, Strain/Indicator: TA97, Metabolic Activation: RAT, LIVER, S-9, AROCLOR 1254 (10%), Method: PREINCUBATION inactive; negative | Test System: AMES SALMONELLA TYPHIMURIUM, Strain/Indicator: TA97, Metabolic Activation: RAT, LIVER, S-9, AROCLOR 1254 (30%), Method: PREINCUBATION inactive; negative | Test System: AMES SALMONELLA TYPHIMURIUM, Strain/Indicator: TA98, Metabolic Activation: HAMSTER, LIVER, S-9, AROCLOR 1254 (10%), Method: PREINCUBATION inactive; negative | Test System: AMES SALMONELLA TYPHIMURIUM, Strain/Indicator: TA98, Metabolic Activation: HAMSTER, LIVER, S-9, AROCLOR 1254 (30%), Method: PREINCUBATION inactive; negative | [2] inactive; negative | Test System: AMES SALMONELLA TYPHIMURIUM, Strain/Indicator: TA98, Metabolic Activation: RAT, LIVER, S-9, AROCLOR 1254 (10%), Method: PREINCUBATION inactive; negative | Test System: AMES SALMONELLA TYPHIMURIUM, Strain/Indicator: TA98, Metabolic Activation: RAT, LIVER, S-9, AROCLOR 1254 (30%), Method: PREINCUBATION inactive; negative | Test System: AMES SALMONELLA TYPHIMURIUM, Strain/Indicator: TA100, Metabolic Activation: HAMSTER, LIVER, S-9, AROCLOR 1254 (10%), Method: PREINCUBATION inactive; negative | Test System: AMES SALMONELLA TYPHIMURIUM, Strain/Indicator: TA100, Metabolic Activation: HAMSTER, LIVER, S-9, AROCLOR 1254 (30%), Method: PREINCUBATION inactive; negative | [4] inactive; negative | Test System: AMES SALMONELLA TYPHIMURIUM, Strain/Indicator: TA100, Metabolic Activation: RAT, LIVER, S-9, AROCLOR 1254 (10%), Method: PREINCUBATION inactive; negative | Test System: AMES SALMONELLA TYPHIMURIUM, Strain/Indicator: TA100, Metabolic Activation: RAT, LIVER, S-9, AROCLOR 1254 (30%), Method: PREINCUBATION inactive; negative | Test System: AMES SALMONELLA TYPHIMURIUM, Strain/Indicator: TA1535, Metabolic Activation: HAMSTER, LIVER, S-9, AROCLOR 1254 (10%), Method: PREINCUBATION inactive; negative | Test System: AMES SALMONELLA TYPHIMURIUM, Strain/Indicator: TA1535, Metabolic Activation: HAMSTER, LIVER, S-9, AROCLOR 1254 (30%), Method: PREINCUBATION inactive; negative | [6] inactive; negative | Test System: AMES SALMONELLA TYPHIMURIUM, Strain/Indicator: TA1535, Metabolic Activation: RAT, LIVER, S-9, AROCLOR 1254 (10%), Method: PREINCUBATION inactive; negative | Test System: AMES SALMONELLA TYPHIMURIUM, Strain/Indicator: TA1535, Metabolic Activation: RAT, LIVER, S-9, AROCLOR 1254 (30%), Method: PREINCUBATION inactive; negative

CC[C@@H](CO)NCCN[C@@H](CC)CO
inactive: [3] inactive; negative | Test System: AMES SALMONELLA TYPHIMURIUM, Strain/Indicator: TA98, Metabolic Activation: S-9, Method: STANDARD PLATE inactive; negative | [5] inactive; negative | Test System: AMES SALMONELLA TYPHIMURIUM, Strain/Indicator: TA100, Metabolic Activation: S-9, Method: STANDARD PLATE inactive; negative

OC[C@@H](O)[C@@H](O)CO
inactive: [3] inactive; negative | Test System: AMES SALMONELLA TYPHIMURIUM, Strain/Indicator: TA98, Metabolic Activation: RAT, LIVER, S-9, Method: STANDARD PLATE inactive; negative | [5] inactive; negative | Test System: AMES SALMONELLA TYPHIMURIUM, Strain/Indicator: TA100, Metabolic Activation: RAT, LIVER, S-9, Method: STANDARD PLATE inactive; negative | [7] inactive; negative | Test System: AMES SALMONELLA TYPHIMURIUM, Strain/Indicator: TA1535, Metabolic Activation: RAT, LIVER, S-9, Method: STANDARD PLATE inactive; negative | [8] inactive; negative | Test System: AMES SALMONELLA TYPHIMURIUM, Strain/Indicator: TA1537, Metabolic Activation: RAT, LIVER, S-9, Method: STANDARD PLATE inactive; negative | Test System: E. COLI, Strain/Indicator: WP2 UVRA, Metabolic Activation: NONE, Method: STANDARD PLATE inactive; negative | Test System: E. COLI, Strain/Indicator: WP2 UVRA, Metabolic Activation: RAT, LIVER, S-9, Method: STANDARD PLATE inactive; negative
